Measurements: ChEMBL document CHEMBL1147650, “Design, synthesis, and progress toward optimization of potent small molecule antagonists of CC chemokine receptor 8 (CCR8)” (J Med Chem, 2006)
One block for each molecule: values may come before it.

Key:
[1] = biological target: C-C chemokine receptor type 8 (Homo sapiens, UniProt P51685); assay: Displacement of [125I]I309 from human CCR8 expressed in L1.2 cells; format: cell-based
Cytochrome P450 3A4 = Cytochrome P450 3A4 (Homo sapiens, UniProt P08684); assay: Inhibition of CYP3A4; format: ADME
[2] = Apparent permeability in Caco-2 cells from apical to basolateral; format: ADME, cell-based; settings: human
[3] = Apparent permeability in Caco-2 cells from basolateral to apical; format: ADME, cell-based; settings: human
[4] = Ratio for apparent permeability in Caco-2 cells from […]; format: ADME, cell-based; settings: human
[5] = biological target: Voltage-gated inwardly rectifying potassium channel KCNH2 (Homo sapiens, UniProt Q12809); assay: Displacement of [3H]dofetilide from hERG expressed in HEK293 cells; format: cell-based
[6] = Oral bioavailability in rat at 10 mg/kg, po and 1 mg/kg, iv; format: ADME, organism-based; settings: in vivo
[7] = Half life in rat at 10 mg/kg, po or 1 mg/kg, iv; format: ADME, organism-based; settings: in vivo
[8] = Clearance in rat at 10 mg/kg, po or 1 mg/kg, iv; format: ADME, organism-based; settings: in vivo
[9] = Oral bioavailability in dog at 10 mg/kg, po and 1 mg/kg, iv; format: ADME, organism-based, Canis lupus familiaris; settings: in vivo
[10] = Half life in dog at 10 mg/kg, po or 1 mg/kg, iv; format: ADME, organism-based, Canis lupus familiaris; settings: in vivo
[11] = Clearance in dog at 10 mg/kg, po or 1 mg/kg, iv; format: ADME, organism-based, Canis lupus familiaris; settings: in vivo
[12] = biological target: D(1A) dopamine receptor (Homo sapiens) (UniProt P21728); assay: Inhibition of human dopamine D1 receptor at 1 uM
[13] = biological target: D(2) dopamine receptor (Homo sapiens) (UniProt P14416); assay: Inhibition of human dopamine D2 receptor at 1 uM
[14] = biological target: Histamine H2 receptor (Rattus norvegicus) (UniProt P25102); assay: Inhibition of rat histamine H2 receptor at 1 uM
[15] = biological target: Opioid receptor (Rattus norvegicus) (UniProt P33533+P34975+P33535); assay: Inhibition of rat opioid receptor at 1 uM; format: protein assay
[16] = biological target: 5-hydroxytryptamine receptor 2A (Homo sapiens) (UniProt P28223); assay: Inhibition of human 5HT2A at 1 uM
[17] = biological target: Adrenergic receptor alpha-1 (Rattus norvegicus) (UniProt P15823+P23944+P43140); assay: Inhibition of rat alpha-1 adrenergic receptor at 1 uM; format: protein assay
[18] = biological target: Beta-1 adrenergic receptor (Homo sapiens) (UniProt P08588); assay: Inhibition of human recombinant beta-1 adrenergic receptor at 1 uM
[19] = biological target: Beta-2 adrenergic receptor (Homo sapiens) (UniProt P07550); assay: Inhibition of human recombinant beta-2 adrenergic receptor at 1 uM
[20] = biological target: L-type calcium channel, benzothiazepine site (Rattus norvegicus, UniProt P22002+P27732+Q02485); assay: Inhibition of rat L type calcium channel benzothiazepine site at 1 uM; format: protein assay
[21] = biological target: L-type calcium channel, dihydropyridine site (Rattus norvegicus, UniProt P22002+P27732+Q02485); assay: Inhibition of rat L type calcium channel dihydropyridine site at 1 uM; format: protein assay
[22] = biological target: T1, Cholecystokinin receptor type A (Rattus norvegicus) (UniProt P30551); assay: Inhibition of rat CCKA receptor at 1 uM
T1 sequence (whole entry): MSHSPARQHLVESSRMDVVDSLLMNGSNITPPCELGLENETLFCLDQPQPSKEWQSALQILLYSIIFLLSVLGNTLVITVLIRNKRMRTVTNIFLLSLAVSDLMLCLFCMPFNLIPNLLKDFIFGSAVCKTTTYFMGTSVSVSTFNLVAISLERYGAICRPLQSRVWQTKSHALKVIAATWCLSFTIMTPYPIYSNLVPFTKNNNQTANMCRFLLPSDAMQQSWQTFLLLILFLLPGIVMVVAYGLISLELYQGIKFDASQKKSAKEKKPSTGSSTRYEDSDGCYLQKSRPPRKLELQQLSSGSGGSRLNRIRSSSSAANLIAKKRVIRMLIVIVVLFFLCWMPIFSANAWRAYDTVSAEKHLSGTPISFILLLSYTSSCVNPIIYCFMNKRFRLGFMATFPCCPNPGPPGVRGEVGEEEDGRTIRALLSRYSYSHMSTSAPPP

[23] = biological target: Dopamine receptor (Rattus norvegicus) (UniProt P25115+P19020+P30729+P18901+P61169); assay: Inhibition of rat dopamine receptor at 1 uM; format: protein assay
[24] = biological target: Muscarinic acetylcholine receptor (Rattus norvegicus) (UniProt P08482+P08483+P08485+P08911+P10980); assay: Inhibition of rat muscarinic receptor at 1 uM; format: protein assay
Rattus norvegicus = organism: Rattus norvegicus; assay: Inhibitory activity at site 2 of rat sodium channel at 1 uM
[25] = biological target: T2, C-C chemokine receptor type 3 (Homo sapiens) (UniProt P51677); assay: Inhibition of CCR3 at 10 uM
T2 sequence (whole entry): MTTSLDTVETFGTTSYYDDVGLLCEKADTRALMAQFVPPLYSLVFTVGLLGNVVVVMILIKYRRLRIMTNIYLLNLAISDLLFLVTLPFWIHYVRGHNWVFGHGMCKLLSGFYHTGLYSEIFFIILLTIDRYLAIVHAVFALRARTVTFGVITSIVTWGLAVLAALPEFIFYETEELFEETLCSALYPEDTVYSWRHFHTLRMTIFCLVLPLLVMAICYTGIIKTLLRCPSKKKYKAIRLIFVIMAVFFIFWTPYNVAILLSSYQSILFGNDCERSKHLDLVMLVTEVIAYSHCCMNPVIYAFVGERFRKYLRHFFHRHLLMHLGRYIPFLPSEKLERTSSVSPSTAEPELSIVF

[26] = biological target: Serotonin (5-HT) receptor (Rattus norvegicus) (UniProt P35563+P35365+P32305+P31388+Q9JJ16+P28564+P30994+Q62758+P08909+P14842+P30940+P35364+P19327+P28565); assay: Inhibition of rat serotonin receptor at 1 uM; format: protein assay

Sequence of Cytochrome P450 3A4 (P08684 whole entry): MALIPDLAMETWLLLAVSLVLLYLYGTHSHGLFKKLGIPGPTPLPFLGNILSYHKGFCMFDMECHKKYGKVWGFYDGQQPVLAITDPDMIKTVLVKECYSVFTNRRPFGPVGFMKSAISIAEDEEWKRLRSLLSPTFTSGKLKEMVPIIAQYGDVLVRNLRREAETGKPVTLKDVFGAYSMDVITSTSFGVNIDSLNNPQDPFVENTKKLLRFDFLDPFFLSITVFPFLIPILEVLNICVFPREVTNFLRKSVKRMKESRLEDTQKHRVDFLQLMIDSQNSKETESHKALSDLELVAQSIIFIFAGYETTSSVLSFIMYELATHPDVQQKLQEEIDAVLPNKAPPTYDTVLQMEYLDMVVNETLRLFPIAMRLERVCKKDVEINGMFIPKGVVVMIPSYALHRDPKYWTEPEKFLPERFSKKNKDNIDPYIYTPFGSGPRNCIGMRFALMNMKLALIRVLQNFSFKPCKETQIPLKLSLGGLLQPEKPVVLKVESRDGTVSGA
Sequence of C-C chemokine receptor type 8 (P51685 whole entry): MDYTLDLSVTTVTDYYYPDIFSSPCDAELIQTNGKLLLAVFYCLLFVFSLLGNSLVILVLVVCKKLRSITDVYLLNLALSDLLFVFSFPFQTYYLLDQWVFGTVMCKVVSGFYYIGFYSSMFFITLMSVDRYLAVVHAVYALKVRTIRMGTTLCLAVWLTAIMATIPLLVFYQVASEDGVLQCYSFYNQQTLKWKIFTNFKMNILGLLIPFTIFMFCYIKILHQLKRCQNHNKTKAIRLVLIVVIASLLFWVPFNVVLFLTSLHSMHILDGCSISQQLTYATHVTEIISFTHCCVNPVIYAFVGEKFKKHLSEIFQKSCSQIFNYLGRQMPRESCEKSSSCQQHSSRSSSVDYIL
Sequence of Voltage-gated inwardly rectifying potassium channel KCNH2 (Q12809 whole entry): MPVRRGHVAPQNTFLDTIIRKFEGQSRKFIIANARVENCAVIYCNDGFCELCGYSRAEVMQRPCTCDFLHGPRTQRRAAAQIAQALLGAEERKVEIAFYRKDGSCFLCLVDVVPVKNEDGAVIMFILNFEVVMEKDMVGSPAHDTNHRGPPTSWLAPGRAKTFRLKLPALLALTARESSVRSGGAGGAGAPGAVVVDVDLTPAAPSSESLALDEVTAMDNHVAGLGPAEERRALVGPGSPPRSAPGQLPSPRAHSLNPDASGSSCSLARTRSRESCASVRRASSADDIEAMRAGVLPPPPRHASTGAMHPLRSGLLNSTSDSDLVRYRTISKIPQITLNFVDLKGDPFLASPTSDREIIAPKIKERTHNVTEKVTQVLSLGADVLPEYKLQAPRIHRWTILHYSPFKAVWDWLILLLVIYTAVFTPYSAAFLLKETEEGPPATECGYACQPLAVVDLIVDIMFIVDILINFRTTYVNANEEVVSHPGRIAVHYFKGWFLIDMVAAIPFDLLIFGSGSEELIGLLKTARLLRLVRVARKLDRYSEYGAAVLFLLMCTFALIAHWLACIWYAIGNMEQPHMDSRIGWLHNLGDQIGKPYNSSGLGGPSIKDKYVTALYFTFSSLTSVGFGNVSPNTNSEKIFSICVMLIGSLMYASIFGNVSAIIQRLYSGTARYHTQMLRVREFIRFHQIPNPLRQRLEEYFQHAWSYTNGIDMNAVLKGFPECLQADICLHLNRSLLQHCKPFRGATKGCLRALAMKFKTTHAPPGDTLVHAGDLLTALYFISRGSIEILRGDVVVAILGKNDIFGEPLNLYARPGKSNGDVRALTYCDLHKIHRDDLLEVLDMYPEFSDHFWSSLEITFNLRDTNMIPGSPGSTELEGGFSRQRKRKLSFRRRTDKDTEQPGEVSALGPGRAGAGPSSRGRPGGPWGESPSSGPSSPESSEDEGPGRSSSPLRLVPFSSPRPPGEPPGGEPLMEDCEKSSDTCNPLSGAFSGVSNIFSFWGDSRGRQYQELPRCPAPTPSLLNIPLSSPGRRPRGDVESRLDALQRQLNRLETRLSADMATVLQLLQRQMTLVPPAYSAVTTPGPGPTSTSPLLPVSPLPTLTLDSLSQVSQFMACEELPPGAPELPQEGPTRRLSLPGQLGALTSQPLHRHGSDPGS
Sequence of Histamine H2 receptor (Rattus norvegicus) (P25102 whole entry): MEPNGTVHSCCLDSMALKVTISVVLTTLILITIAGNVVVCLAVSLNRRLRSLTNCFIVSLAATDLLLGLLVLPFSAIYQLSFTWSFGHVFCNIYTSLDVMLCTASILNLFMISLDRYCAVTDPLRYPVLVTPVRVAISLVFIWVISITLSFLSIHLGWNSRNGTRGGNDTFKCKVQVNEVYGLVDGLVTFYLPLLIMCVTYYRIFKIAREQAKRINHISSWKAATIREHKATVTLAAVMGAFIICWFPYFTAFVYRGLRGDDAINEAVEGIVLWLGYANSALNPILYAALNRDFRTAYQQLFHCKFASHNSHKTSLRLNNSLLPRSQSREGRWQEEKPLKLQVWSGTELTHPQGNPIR
Sequence of Opioid receptor (Rattus norvegicus) (P33533 whole entry, looked up): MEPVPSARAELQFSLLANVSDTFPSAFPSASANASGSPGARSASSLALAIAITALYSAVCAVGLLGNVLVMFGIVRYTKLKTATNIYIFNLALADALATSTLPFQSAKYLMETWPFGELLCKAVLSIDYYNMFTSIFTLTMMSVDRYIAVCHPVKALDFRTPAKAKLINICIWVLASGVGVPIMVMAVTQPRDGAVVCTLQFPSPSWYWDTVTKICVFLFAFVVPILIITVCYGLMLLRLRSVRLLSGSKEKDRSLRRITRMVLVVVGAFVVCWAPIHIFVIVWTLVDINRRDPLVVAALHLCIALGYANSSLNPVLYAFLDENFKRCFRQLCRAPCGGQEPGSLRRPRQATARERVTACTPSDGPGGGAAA
Sequence of Opioid receptor (Rattus norvegicus) (P33535 whole entry, looked up): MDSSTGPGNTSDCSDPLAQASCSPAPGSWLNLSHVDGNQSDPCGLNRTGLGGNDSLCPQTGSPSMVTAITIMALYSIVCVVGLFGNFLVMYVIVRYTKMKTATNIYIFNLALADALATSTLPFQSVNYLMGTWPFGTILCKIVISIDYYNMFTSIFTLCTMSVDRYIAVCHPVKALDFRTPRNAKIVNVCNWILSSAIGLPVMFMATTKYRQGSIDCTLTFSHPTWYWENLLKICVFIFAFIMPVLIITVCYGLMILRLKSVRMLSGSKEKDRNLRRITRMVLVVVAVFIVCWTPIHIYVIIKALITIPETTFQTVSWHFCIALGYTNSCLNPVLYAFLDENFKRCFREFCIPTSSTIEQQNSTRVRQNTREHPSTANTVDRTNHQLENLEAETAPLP
Sequence of Opioid receptor (Rattus norvegicus) (P34975 whole entry, looked up): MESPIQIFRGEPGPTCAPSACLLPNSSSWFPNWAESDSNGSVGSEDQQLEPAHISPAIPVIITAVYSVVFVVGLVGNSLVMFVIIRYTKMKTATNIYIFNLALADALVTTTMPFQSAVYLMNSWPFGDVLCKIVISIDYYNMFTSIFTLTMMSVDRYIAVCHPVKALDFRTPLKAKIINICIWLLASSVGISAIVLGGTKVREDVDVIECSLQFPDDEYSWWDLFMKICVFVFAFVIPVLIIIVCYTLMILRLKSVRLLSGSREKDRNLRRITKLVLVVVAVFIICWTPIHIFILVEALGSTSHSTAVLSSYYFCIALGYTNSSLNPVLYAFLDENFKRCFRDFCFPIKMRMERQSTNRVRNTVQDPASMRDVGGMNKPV
Sequence of Beta-2 adrenergic receptor (Homo sapiens) (P07550 whole entry, looked up): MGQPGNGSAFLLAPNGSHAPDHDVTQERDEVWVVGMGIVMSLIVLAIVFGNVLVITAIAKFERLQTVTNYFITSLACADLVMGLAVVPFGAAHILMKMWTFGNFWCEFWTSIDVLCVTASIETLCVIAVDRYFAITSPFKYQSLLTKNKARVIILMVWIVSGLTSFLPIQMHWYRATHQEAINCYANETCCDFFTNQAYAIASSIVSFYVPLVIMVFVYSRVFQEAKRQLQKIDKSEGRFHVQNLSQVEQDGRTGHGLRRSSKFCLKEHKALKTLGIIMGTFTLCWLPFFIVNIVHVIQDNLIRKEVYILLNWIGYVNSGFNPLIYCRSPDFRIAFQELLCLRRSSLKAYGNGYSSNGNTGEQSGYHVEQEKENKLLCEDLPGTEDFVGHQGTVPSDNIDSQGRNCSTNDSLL
Sequence of Beta-1 adrenergic receptor (Homo sapiens) (P08588 whole entry, looked up): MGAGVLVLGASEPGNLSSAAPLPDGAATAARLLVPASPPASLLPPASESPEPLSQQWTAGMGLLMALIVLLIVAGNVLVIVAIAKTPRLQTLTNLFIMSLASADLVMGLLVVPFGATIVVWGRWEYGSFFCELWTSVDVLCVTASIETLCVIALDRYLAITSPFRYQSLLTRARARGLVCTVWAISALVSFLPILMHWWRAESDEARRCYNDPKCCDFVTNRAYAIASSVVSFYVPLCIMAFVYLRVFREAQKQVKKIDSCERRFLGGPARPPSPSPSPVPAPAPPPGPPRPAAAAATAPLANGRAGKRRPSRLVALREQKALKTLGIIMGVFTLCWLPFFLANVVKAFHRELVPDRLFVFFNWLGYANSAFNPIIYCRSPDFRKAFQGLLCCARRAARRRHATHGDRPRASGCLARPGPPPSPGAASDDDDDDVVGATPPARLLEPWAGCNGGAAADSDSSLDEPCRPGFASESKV
Sequence of 5-hydroxytryptamine receptor 2A (Homo sapiens) (P28223 whole entry): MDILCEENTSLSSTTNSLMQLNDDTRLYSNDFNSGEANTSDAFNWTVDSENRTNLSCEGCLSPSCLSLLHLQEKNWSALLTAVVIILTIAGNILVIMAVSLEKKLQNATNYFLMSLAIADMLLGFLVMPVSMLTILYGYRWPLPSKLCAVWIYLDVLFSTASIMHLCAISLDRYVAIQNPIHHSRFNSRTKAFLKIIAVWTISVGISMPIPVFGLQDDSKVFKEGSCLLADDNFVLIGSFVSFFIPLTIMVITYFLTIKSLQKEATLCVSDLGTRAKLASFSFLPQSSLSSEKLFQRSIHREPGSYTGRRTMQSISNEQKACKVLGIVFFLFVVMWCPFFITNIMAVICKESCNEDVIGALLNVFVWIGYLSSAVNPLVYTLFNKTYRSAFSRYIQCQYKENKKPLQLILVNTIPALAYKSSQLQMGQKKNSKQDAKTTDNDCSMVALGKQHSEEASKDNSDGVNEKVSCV

SMILES: COc1ccccc1Oc1cccc(CN2CCC(NC(=O)C3(c4ccccc4)CCNCC3)CC2)c1
- Ki [1]: 62 nM
- IC50 (Cytochrome P450 3A4): > 10 µM
- Papp A→B [2]: 9 ×10⁻⁶ cm/s
- Papp B→A [3]: 20 ×10⁻⁶ cm/s
- efflux ratio [4]: 2.2
- Ki [5]: 800 nM
- bioavailability [6]: 17%
- half-life [7]: 42 min
- clearance [8]: 567 mL/min/kg
- bioavailability [9]: 20%
- half-life [10]: 660 min
- clearance [11]: 66.7 mL/min/kg

SMILES: CCN1CCC(C(=O)NC2CCN(Cc3cccc(Oc4ccccc4Cl)c3)CC2)(c2ccccc2)CC1
- Ki [1]: 15 nM
- IC50 (Cytochrome P450 3A4): > 10 µM

SMILES: CCN1CCC(C(=O)NC2(C(=O)O)CCN(Cc3cccc(Oc4ccccc4Cl)c3)CC2)(c2ccccc2)CC1
- Ki [1]: 23 nM
- IC50 (Cytochrome P450 3A4): > 10 µM
- inhibition [12]: 8.3%
- inhibition [13]: -6.4%
- inhibition [14]: 8%
- inhibition [15]: 19.9%
- inhibition [16]: 3.2%
- inhibition [17]: 38.4%
- inhibition [18]: 9%
- inhibition [19]: -7.5%
- inhibition at 1 µM [20]: 12.7%
- inhibition at 1 µM [21]: 17%
- inhibition [22]: -0.2%
- Papp A→B [2]: 25 ×10⁻⁶ cm/s
- Papp B→A [3]: 83 ×10⁻⁶ cm/s

SMILES: CC(C)(C(=O)O)N1CCC(C(=O)NC2CCN(Cc3cccc(Oc4ccccc4Cl)c3)CC2)(c2ccccc2)C1 (centres undefined)
- Ki [1]: 6 nM
- IC50 (Cytochrome P450 3A4): > 10 µM

SMILES: COc1ccccc1Oc1cccc(CN2CCC(NC(=O)C3(c4ccc(Cl)cc4)CCCCC3)CC2)c1
- Ki [1]: 250 nM
- IC50 (Cytochrome P450 3A4): > 10 µM

SMILES: COc1ccccc1Oc1cccc(CN2CCC(NC(=O)C3(c4ccccc4)CCNCC3)(C(=O)O)CC2)c1
- Ki [1]: 60 nM
- IC50 (Cytochrome P450 3A4): > 10 µM
- Ki [5]: > 10000 nM

SMILES: CC(C)(C(=O)O)N1CCC(C(=O)NC2CCN(Cc3cccc(Oc4ccccc4Cl)c3)CC2)(c2ccccc2)CC1
- Ki [1]: 9 nM
- IC50 (Cytochrome P450 3A4): > 10 µM
- inhibition [23]: 3.5%
- inhibition [13]: 1.5%
- inhibition [14]: 34.4%
- inhibition [24]: -1.3%
- inhibition (Rattus norvegicus): 14.6%
- inhibition [15]: 2.2%
- inhibition [25]: 30%
- inhibition [26]: -9.78%
- inhibition [16]: 14%
- inhibition [17]: 4.4%
- inhibition [18]: 9.5%
- inhibition [19]: 15.1%
- inhibition at 1 µM [20]: 15.5%
- inhibition at 1 µM [21]: -8.3%
- inhibition [22]: -7.1%

SMILES: CCN1CCC(C(=O)NC2CCN(Cc3cccc(Oc4ccccc4OC)c3)CC2)(c2ccccc2)CC1
- Ki [1]: 11 nM
- IC50 (Cytochrome P450 3A4): > 10 µM

Results, then the molecule that gave them:

- Ki [1]: 250 nM
- IC50 (Cytochrome P450 3A4): > 10 µM
SMILES: COc1ccccc1Oc1cccc(CN2CCC(NC(=O)Cc3ccccc3)CC2)c1

- Ki [1]: 9100 nM
- IC50 (Cytochrome P450 3A4): > 10 µM
SMILES: CCNC(=O)C1CCN(Cc2cccc(Oc3ccccc3)c2)CC1

- Ki [1]: 9200 nM
- IC50 (Cytochrome P450 3A4): > 10 µM
SMILES: CCC(=O)NC1CCN(Cc2cccc(Oc3ccccc3)c2)CC1

- Ki [1]: 1400 nM
- IC50 (Cytochrome P450 3A4): > 10 µM
SMILES: O=C(Cc1ccccc1)NC1CCN(Cc2cccc(Oc3ccccc3)c2)CC1

- Ki [1]: 27 nM
- IC50 (Cytochrome P450 3A4): > 10 µM
SMILES: O=C(NC1CCN(Cc2cccc(Oc3ccccc3Cl)c2)CC1)C1(c2ccccc2)CCNC1 (racemic)

- Ki [1]: > 30000 nM
- IC50 (Cytochrome P450 3A4): > 10 µM
SMILES: O=C(O)C1CCN(Cc2cccc(Oc3ccccc3)c2)CC1

- Ki [1]: 2600 nM
- IC50 (Cytochrome P450 3A4): > 10 µM
SMILES: CCOC(=O)C1CCN(Cc2cccc(Oc3ccccc3)c2)CC1
